These results are taken from patent publication US20250339462A1, “CANCER TREATMENT USING ULTRA-HIGH CONCENTRATION GASEOUS NITRIC OXIDE AND A CHECKPOINT INHIBITOR” (Beyond Air, Inc., priority 2022, published 2025).

The test system of the test is CT26 cells. Description: In vitro UNO exposure of CT26 cells, Annexin V/PI cell death analysis. Format: cell-based, mouse. Conditions: 25,000-100,000 ppm for 10 s, 30 s or 1 min; 24 hours following exposure; dosage and time dependent. The procedure:
Preparation of cells—Mouse colon carcinoma CT26.WT cells (ATCC number: CRL-2638) were grown to a 70-80% confluency and harvested using trypsin. Following, the cells were centrifuged at 1,200 revolutions per minute (rpm)—241 G for 8 minutes, then the pellet was re-suspended in 1 ml of cell media (RPMI—1640 supplemented with 10% FBS and 1% Pen-Strep). The cells were counted using an automated cell counter and a total of 2×10^6 cells were seeded into each […] containing 9 ml cell media. The plates were then placed for 24 hours in an incubator at 37° C., 5% CO2.
UNO treatment—Following 24 hours of incubation, cell media was removed, and the plate was placed in an acrylic box stationed within an operating chemical fume hood. Prior to the initiation of treatment, the box was exposed to UV for 1 hour to reduce the chances of contamination. The box was closed and sealed with parafilm. A PVC delivery line was placed within a designated hole on the top of the box and lowered until approximately 5 cm within the box. The flowmeter was set to 1 LPM to expose the cells for the durations and concentrations described in Table 3 (control cells were untreated).
Following treatment, 9 ml of cell media were added to each well and the plate was placed for 24 hours in an incubator at 37° C., 5% CO2.
Flow cytometry—Cell media was removed to a 50 ml centrifuge tube. […]

Turning to `[N]=O` [UNO, nitric oxide], the “Effect on viability of CT26 cancer cells” value is “reduces viability and induces apoptosis and necrosis”.
